Data on 37 compounds can be found in patent US8110570B2, “Modulators of acetyl-coenzyme A carboxylase and methods of use thereof” (Cropsolution, Inc., priority 2008, dated 2012).

One experiment addresses T1, hACC1 (Homo sapiens, UniProt Q13085).
T1 construct: PCR primers were designed for full-length hACC1 and hACC2 using GenBank submissions AY237919 and AJ575592, respectively; His tag (C); made in house; host or cells: baculovirus, Sf9 insect cells
Description: [14C]bicarbonate incorporation assay, overall ACC activity. The class given is biochemical. Particulars: recombinant hACC1, overall ACC activity. As to the method: (§1) In vitro IC50 values of human ACC were determined using recombinant enzyme produced by standard procedures. For example, full-length cDNAs for both the human isoforms (hACC1 and hACC2) were each cloned and expressed as a recombinant protein using a baculovirus system. Double stranded cDNA from human fetal liver (Quick-Clone cDNA, cat. #7171-1) was purchased from BD/Clontech (Mt. View, Calif.). PCR primers were designed for full-length hACC1 and hACC2 using GenBank submissions AY237919 and AJ575592, respectively. The Advantage GC 2 PCR kit (BD/Clontech) was used for amplification. The PCR products (about 7 Kb) were TOPO-cloned into the pCR4Blunt vector (Invitrogen, Carlsbad, Calif.), and 6 clones of each gene were isolated. […] Full length versions of the two cDNAs corresponding to their respective Genbank sequences were assembled in pBluescript SK+ (Stratagene, La Jolla, Calif.) by combining error-free fragments from the PCR clones. The resulting hACC1 clone, designated pCS35, has six silent nucleotide differences compared to Genbank accession AY237919. The final hACC2 clone, designated pCS36, has ten silent nucleotide differences compared to Genbank accession AJ575592. Primers were designed to PCR amplify the cDNAs along with the in-frame 3′-his tag sequences from the pET vector and TOPO-cloned the resulting products into the Gateway® entry vector pENTR/D-TOPO. The ACC2 primers were designed to delete amino acids 1-148 and add Met-Gly in front of Lys149 in the final product. The resulting entry clones were transferred to BaculoDirect™ linear DNA (Invitrogen corp.) using the Gateway® LR recombination reaction. The recombinant baculovirus DNA was transfected into insect cells and viral amplification was performed according to the manufacturer's protocols. For protein expression sf9 cells were infected with a P3 viral stock in the presence of 50 uM biotin. The cells were harvested after 48-72 hr, lysed by sonication, and the resulting extract was clarified by centrifugation. ACC in the crude extract was concentrated by ammonium sulfate precipitation (40% w/v) and purified by Ni^2+-NTA chromatography (Novagen) followed by anion exchange chromatography on a UNO-Q column (BioRad).
(§2) Overall ACC activity in the hACC preparations is measured by following incorporation of [^14C]bicarbonate into […] essentially as described (Thumpy and Wakil, J Biol Chem 260, 6318-6323 (1985). Briefly, the reaction mixture (50 μL) contains: 50 mM Hepes (pH7.4), 20 mM K-Citrate, 20 mM Mg-Acetate 1.5 mM MgSO4, 2 mM DTT, 2 mM acetyl-CoA, 12 mM NaHCO3, 0.2 mM NaH^14CO3 (˜50 mCi/mmol), 0.01% (v/v) Triton X-100, 0.75 mg/mL BSA, 1% (v/v) DMSO (with or without inhibitor), and 0.3 μg (hACC1) or 0.15 μg (hACC2) enzyme. Reactions are initiated by the addition of ATP to a final concentration 2 mM. After 10 minutes at 37° C., the reaction is stopped by the addition of 2N HCl (50 μL). The samples are evaporated in a hood overnight, resuspended in H2O (200 μL), and incorporated label is quantified by scintillation counting in scintillation cocktail (3 mL). Inhibition data are fit to dose-response curves and IC50 values are reported (i.e. the concentration of inhibitor that gives 50% inhibition).

A further experiment has as its target T2, hACC2 (Homo sapiens, UniProt O00763).
T2 construct: delete amino acids 1-148 and add Met-Gly in front of Lys149 in the final product; His tag (C); made in house; host or cells: baculovirus, Sf9 insect cells
The experiment is described as above. In kind it is biochemical. The note with it: recombinant hACC2, overall ACC activity. As to the method:
as §1, §2

T2 sequence (O00763 149-2458 limits assumed): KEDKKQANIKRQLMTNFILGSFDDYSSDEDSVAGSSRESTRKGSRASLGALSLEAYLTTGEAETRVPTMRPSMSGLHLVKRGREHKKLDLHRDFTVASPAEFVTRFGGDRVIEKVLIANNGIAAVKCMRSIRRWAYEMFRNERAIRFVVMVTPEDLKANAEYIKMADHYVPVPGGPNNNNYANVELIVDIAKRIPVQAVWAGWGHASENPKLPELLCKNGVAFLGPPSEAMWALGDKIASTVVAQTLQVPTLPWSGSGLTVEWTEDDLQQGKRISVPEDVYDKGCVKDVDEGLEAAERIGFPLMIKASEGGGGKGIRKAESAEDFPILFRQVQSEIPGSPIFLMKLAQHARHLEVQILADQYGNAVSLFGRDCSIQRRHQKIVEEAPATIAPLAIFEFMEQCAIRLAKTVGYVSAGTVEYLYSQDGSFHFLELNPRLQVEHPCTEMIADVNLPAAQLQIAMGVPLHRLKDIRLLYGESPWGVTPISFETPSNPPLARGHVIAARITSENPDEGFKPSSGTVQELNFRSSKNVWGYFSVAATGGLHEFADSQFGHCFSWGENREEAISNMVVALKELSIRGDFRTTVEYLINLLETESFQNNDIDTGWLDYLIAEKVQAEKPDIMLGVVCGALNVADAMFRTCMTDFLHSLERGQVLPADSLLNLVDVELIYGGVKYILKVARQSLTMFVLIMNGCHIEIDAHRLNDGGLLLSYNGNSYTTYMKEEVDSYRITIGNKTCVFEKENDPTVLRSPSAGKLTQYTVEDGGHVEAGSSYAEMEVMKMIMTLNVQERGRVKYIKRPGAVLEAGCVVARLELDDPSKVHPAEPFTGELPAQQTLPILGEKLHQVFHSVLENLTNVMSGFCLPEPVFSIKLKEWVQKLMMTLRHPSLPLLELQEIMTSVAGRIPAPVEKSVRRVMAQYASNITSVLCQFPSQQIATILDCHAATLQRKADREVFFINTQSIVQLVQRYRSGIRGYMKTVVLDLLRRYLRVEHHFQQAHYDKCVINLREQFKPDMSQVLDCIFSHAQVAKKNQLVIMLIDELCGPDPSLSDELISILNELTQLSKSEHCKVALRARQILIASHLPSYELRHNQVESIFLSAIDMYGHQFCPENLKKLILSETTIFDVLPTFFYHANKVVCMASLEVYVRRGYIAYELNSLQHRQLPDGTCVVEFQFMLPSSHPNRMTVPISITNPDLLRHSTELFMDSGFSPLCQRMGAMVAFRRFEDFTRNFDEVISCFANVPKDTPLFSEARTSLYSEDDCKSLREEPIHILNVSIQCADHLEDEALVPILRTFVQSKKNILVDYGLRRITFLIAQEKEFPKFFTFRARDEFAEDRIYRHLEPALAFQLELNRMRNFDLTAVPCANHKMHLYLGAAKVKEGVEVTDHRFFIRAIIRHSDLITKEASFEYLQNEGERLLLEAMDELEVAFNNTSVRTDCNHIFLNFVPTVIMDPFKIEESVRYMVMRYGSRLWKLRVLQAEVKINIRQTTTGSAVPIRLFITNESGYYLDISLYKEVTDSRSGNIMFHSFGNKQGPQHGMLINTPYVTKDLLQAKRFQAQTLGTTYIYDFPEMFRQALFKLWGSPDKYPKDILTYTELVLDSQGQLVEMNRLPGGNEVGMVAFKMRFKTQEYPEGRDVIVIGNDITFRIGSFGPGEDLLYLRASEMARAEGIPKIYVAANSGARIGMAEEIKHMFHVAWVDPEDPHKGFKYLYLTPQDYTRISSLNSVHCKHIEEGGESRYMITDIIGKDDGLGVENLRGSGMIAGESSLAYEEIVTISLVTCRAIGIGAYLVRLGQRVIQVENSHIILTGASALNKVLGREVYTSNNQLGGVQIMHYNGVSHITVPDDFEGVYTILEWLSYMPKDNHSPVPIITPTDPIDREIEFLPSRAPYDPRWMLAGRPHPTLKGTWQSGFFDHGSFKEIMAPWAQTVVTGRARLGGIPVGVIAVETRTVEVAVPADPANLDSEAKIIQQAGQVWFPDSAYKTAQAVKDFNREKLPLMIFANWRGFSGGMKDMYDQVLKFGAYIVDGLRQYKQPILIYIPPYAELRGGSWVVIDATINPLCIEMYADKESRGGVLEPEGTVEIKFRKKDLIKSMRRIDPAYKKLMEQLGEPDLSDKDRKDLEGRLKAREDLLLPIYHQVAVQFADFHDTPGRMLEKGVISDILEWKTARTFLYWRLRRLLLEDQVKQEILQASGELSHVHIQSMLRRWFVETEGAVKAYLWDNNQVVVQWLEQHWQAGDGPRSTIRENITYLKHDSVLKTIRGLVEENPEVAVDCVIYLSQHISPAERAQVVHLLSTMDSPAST

Broadly, the IC50 is the concentration that gives 50% inhibition. Turning to `COc1cc(C(=O)N2CCC3(CC2)NC(=O)c2cc(C(C)C)ccc2O3)cc2c(OC)cccc12` [Compound 178], the half-maximal inhibitory concentration (IC50) on hACC1 turned out to be 0.014 µM.

Turning to `COc1cc2c(cc1OC)C(=O)NC1(CCN(C(=O)c3cc(OC)c4cccc(OC)c4n3)CC1)N2` [Compound 191], on hACC1, the IC50 stood at 0.19 µM.

As for `COc1ccc(OC)c2c1cc(C(=O)N1CCC3(CC1)NC(=O)c1cc(Br)ccc1O3)n2C` [Compound 26], the values for the IC50 at hACC1 and at hACC2 were 0.83 µM and 0.59 µM, respectively.

Turning to `COc1cccc2c(C)c(C(=O)N3CCC4(CC3)NC(=O)c3cc(C)ccc3O4)[nH]c12` [Compound 143], the figures for the IC50 at hACC1 and on hACC2 were 0.13 µM and 0.19 µM, respectively.

For the compound `COc1cc2c(OC)cccc2cc1C(=O)N1CCC2(CC1)NC(=O)c1cc(Br)ccc1N2` [Compound 90], the concentration for half-maximal inhibition (IC50) at hACC1 was found to be 2.2 µM; on hACC2, 1.1 µM.

`COc1ccc2cc3c(cc2c1)C(=O)NC1(CCN(C(=O)c2[nH]c4c(OC)cccc4c2C)CC1)O3` [Compound 166, 7-Methoxy-1′-[[7-methoxy-3-methyl-1H-indol-2-yl)carbonyl]spiro[2H-naphtho[2,3-e]-1,3-oxazin-2,4′-piperidin]-4-(3H)-one]: the results for the 50% inhibitory concentration (IC50) on hACC1 and on hACC2 were 0.036 µM and 0.031 µM, respectively.

For `COc1cc(C(=O)N2CCC3(CC2)NC(=O)c2cc(NC(C)=O)ccc2O3)cc2c(OC)cccc12` [Compound 31, 6-Acetamido-1′-[(4,8-dimethoxynaphth-2-yl)carbonyl]spiro[2H-1,3-benzoxazin-2,4′-piperidin]-4-(3H)-one], the IC50 on hACC1 came out at 0.0062 µM; at hACC2, 0.003 µM.

For the compound `COc1cccc2c(C)c(C(=O)N3CCC4(CC3)NC(=O)c3cc(Br)ccc3O4)[nH]c12` [Compound 23], the figures for the half-maximal inhibitory concentration (IC50) at hACC1 and on hACC2 were 0.14 µM and 0.18 µM, respectively.

For `COc1ccc(OC)c2c1cc(C(=O)N1CCC3(CC1)NC(=O)c1cc(OC(C)C)ccc1O3)n2C` [Compound 185], the concentration for half-maximal inhibition (IC50) was determined as 0.09 µM at hACC1 and 0.083 µM on hACC2.

As to `CCOc1ccc2c(c1)C(=O)NC1(CCN(C(=O)c3cc(OC)c4cccc(SC)c4c3)CC1)O2` [Compound 176], on hACC1, the IC50 was determined as 0.005 µM.

With `COc1cc(C(=O)N2CCC3(CC2)NC(=O)c2cc4ccccc4cc2O3)cc2c(OC)cccc12` [Compound 160], the IC50 on hACC1 is 0.004 µM; on hACC2, 0.003 µM.

With `COc1cc(C(=O)N2CCC3(CC2)NC(=O)c2cc(Br)ccc2O3)c(OC)c2ccccc12` [Compound 135, 6-Bromo-1′-[(1,4-dimethoxynaphth-2-yl)carbonyl]spiro[2H-1,3-benzoxazin-2,4′-piperidin]-4-(3H)-one], at hACC1, the IC50 came out at 2.2 µM.

Take `COc1cc2c(OC)cccc2cc1C(=O)N1CCC2(CC1)NC(=O)c1cc(NC(C)=O)ccc1O2` [Compound 132, 6-Acetamido-1′-[(3,5-dimethoxynaphth-2-yl)carbonyl]spiro[2H-1,3-benzoxazin-2,4′-piperidin]-4-(3H)-one]: the IC50 was determined as 0.8 µM at hACC1 and 0.3 µM on hACC2.

As to `COc1cc(C(=O)N2CCC3(CC2)NC(=O)c2cc(OC(F)(F)F)ccc2N3)cc2c(OC)cccc12` [Compound 194], the IC50 on hACC1 came to 0.07 µM.

For `COc1cc(C(=O)N2CCC3(CC2)NC(=O)c2cc(Br)ccc2O3)nc2c(C3CC3)cccc12` [Compound 32], the IC50 on hACC1 was determined as 0.18 µM; at hACC2 it was 0.11 µM.

As for `COc1cc(C(=O)N2CCC3(CC2)NC(=O)c2cc(-c4nnn[nH]4)ccc2O3)nc2c(OC)cccc12` [Compound 10], the values for the half-inhibitory concentration (IC50) at hACC1 and at hACC2 were 0.016 µM and 0.011 µM, respectively.

For the compound `COc1cc(C(=O)N2CCC3(CC2)NC(=O)c2cc(Br)ccc2N3)nc2c(SC)cccc12` [Compound 93], the IC50 on hACC1 was 0.43 µM; at hACC2 it was 1.1 µM.

Consider `COc1cc(C(=O)N2CCC3(CC2)NC(=O)c2cc(C)c(C)cc2O3)cc2c(OC)cccc12` [Compound 155, 1′-[(4,8-Dimethoxynaphth-2-yl)carbonyl]-6,7-dimethylspiro[2H-1,3-benzoxazin-2,4′-piperidin]-4-(3H)-one], for which the figures for the half-maximal inhibitory concentration (IC50) on hACC1 and at hACC2 were 0.005 µM and 0.004 µM, respectively.

Consider `Cn1nccc1-c1cccc(C(=O)N2CCC3(CC2)NC(=O)c2cc(Br)ccc2O3)c1` [Compound 141, 6-Bromo-1′-[3-(1-methyl-1H-pyrazol-5-yl)benzoyl]spiro[2H-1,3-benzoxazin-2,4′-piperidin]-4-(3H)-one], for which the concentration for half-maximal inhibition (IC50) on hACC2 turned out to be 1.3 µM.

For the compound `COc1cc(C(=O)N2CCC3(CC2)NC(=O)c2cc(N4CCOCC4)ccc2O3)cc2c(OC)cccc12` [Compound 197], the 50% inhibitory concentration (IC50) on hACC1 turned out to be 0.004 µM.

Turning to `COc1cccc2c(C)c(C(=O)N3CCC4(CC3)NC(=O)c3cc(N)ccc3O4)[nH]c12` [Compound 183], the 50% inhibitory concentration (IC50) at hACC1 came out at 0.43 µM.

`COc1cc(C(=O)N2CCC3(CC2)NC(=O)c2cc(Br)ccc2O3)nc2c(C(C)C)cccc12` [Compound 134]: the IC50 on hACC1 is 4.7 µM.

Take `COc1cc(C(=O)N2CCC3(CC2)NC(=O)c2cc(OC(C)C)ccc2O3)cc2c(OC)cccc12` [Compound 170]: the 50% inhibitory concentration (IC50) at hACC1 came out at 0.006 µM.

With `COc1ccc2c(c1)C(=O)NC1(CCN(C(=O)c3cc4c(OC)ccc(OC)c4[nH]3)CC1)O2` [Compound 182], the IC50 on hACC1 came out at 0.16 µM.

As to `COc1cc(C(=O)N2CCC3(CC2)NC(=O)c2cc(Br)ccc2O3)nc2ccccc12` [Compound 40], the concentration for half-maximal inhibition (IC50) at hACC2 turned out to be 0.9 µM.

On to `COc1cc(C(=O)N2CCC3(CC2)NC(=O)c2cc(OC(F)(F)F)ccc2O3)cc2c(OC)cccc12` [Compound 173], for which, on hACC1, the half-inhibitory concentration (IC50) is 0.006 µM.

Consider `COc1cc(C(=O)N2CCC3(CC2)NC(=O)c2cc(C(C)C)ccc2O3)cc2c(SC)cccc12` [Compound 179], for which, on hACC1, the IC50 was determined as 0.038 µM.

With `COc1ccc2c(c1)C(=O)NC1(CCN(C(=O)c3[nH]c4c(OC)cccc4c3C)CC1)N2` [Compound 189, 6′-Methoxy-1-[[7-methoxy-3-methyl-1H-indol-2-yl)carbonyl]spiro-[piperidine-4,2′(1′H)-quinazolin]-4′-(3′H)-one], the concentration for half-maximal inhibition (IC50) on hACC1 stood at 0.5 µM.

`COc1ccc2c(c1)C(=O)NC1(CCN(C(=O)c3cc(OC)c4cccc(SC)c4c3)CC1)O2` [Compound 177]: on hACC1, the IC50 amounted to 0.005 µM.

Take `COc1ccc2cc3c(cc2c1)C(=O)NC1(CCN(C(=O)c2cc(OC)c4cccc(OC)c4c2)CC1)O3` [Compound 162]: the IC50 on hACC1 turned out to be 0.005 µM.

As to `COc1cc(C(=O)N2CCC3(CC2)NC(=O)c2cc4ccccc4cc2O3)nc2c(SC)cccc12` [Compound 158], the IC50 at hACC2 was 0.008 µM.

For `COc1cccc2c(C)c(C(=O)N3CCC4(CC3)NC(=O)c3cc5ccccc5cc3O4)[nH]c12` [Compound 161, 1′-[[7-Methoxy-3-methyl-1H-indol-2-yl)carbonyl]spiro[2H-naphtho[2,3-e]-1,3-oxazin-2,4′-piperidin]-4-(3H)-one], the IC50 at hACC1 came out at 0.008 µM.

On to `COc1cc(C(=O)N2CCC3(CC2)NC(=O)c2cc(OC(F)(F)F)ccc2N3)nc2c(OC)cccc12` [Compound 195], for which, on hACC1, the IC50 turned out to be 0.5 µM.

With `COc1cc2c(cc1OC)C(=O)NC1(CCN(C(=O)c3cc(OC)c4cccc(OC)c4c3)CC1)N2` [Compound 190], the IC50 on hACC1 worked out at 0.062 µM.

Turning to `COc1ccc2c(c1)C(=O)NC1(CCN(C(=O)c3cc4c(OC)ccc(OC)c4n3C)CC1)O2` [Compound 181], the IC50 on hACC1 was found to be 0.42 µM.

As for `COc1cc(C(=O)N2CCC3(CC2)NC(=O)c2cc(C)ccc2N3)cc2c(OC)cccc12` [Compound 192], the concentration for half-maximal inhibition (IC50) at hACC1 came to 0.16 µM.

For the compound `COc1cc(C(=O)N2CCC3(CC2)NC(=O)c2cc(OC(F)(F)F)ccc2O3)cc2c(SC)cccc12` [Compound 175], on hACC1, the IC50 worked out at 0.021 µM.
